In publication PMC10533412, “Phosphoantigens glue butyrophilin 3A1 and 2A1 to activate Vγ9Vδ2 T cells” (Nature, 2023):
Where “and” joins values, the source holds several entries; their conditions need not be identical. Identical values can stand only once. Like-named read-outs stand apart in the source and are kept apart here. Values belong to the compound of their own block, whether it stands above or below them.

Columns and labels:
VpBTN3 BFI = VpBTN3 BFI (Vicugna pacos, UniProt A0A345DF50); experiment: ITC: pAg binding to VpBTN3 BFI; set-up: species or system alpaca (Vicugna pacos)
Protocol: (§1) ITC experiments were performed using the MicroCal PEAQ-ITC instrument (GE Healthcare) at 25 °C. We used an initial injection of 0.4 μl followed by 19 injections (2 µl each) at 150 s time intervals. ITC binding fits were calculated using MicroCal Analysis software. The samples were prepared using a buffer (20 mM HEPES pH 7.5, 150 mM NaCl).
(§2) ITC experiments of HMBPP, DMAPP or IPP binding to the VpBTN3 BFI (or the preconditioned VpBTN3 BFI and VpBTN2 BFI complex) and VpBTN2 BFI (or VpBTN1 BFI) binding to VpBTN3 BFI in the presence of HMBPP, DMAPP or IPP were performed according to the same procedures as for the BTN3A1 B30.2 and BTN2A1 B30.2.

BTN3A1 B30.2 domain = target: T1, BTN3A1 B30.2 domain (Homo sapiens, UniProt O00481); experiment: ITC: pAg binding to the BTN3A1 B30.2 domain; conditions: 25 °C, read-out: KD, pAg binding to BTN3A1 B30.2 alone
T1 construct: The BTN3A1 B30.2 domain was expressed and purified as described previously; made in house
Protocol: (§3) ITC binding fits were calculated using MicroCal Analysis software.
For pAg binding to the BTN3A1 B30.2 domain, the sample cell and injection syringe were filled with the buffer containing 100 µM protein and 1 mM HMBPP, respectively, or 400 µM protein and 4 mM DMAPP (IPP), respectively.

[1] = target: T2, preconditioned BTN2A1–BTN3A1 B30.2 complex (Homo sapiens, UniProt O00481+Q7KYR7); experiment: ITC: pAg binding to the preconditioned BTN2A1 B30.2 and BTN3A1 B30.2 complex
T2 construct: The BTN3A1 B30.2 domain was expressed and purified as described previously; 6xHis; made in house; host or cells: Escherichia coli BL21 (DE3) for BTN2A1 B30.2
Protocol: as §3
For HMBPP binding to the preconditioned BTN2A1 B30.2 and BTN3A1 B30.2 complex, BTN2A1 B30.2 (20 µM) and BTN3A1 B30.2 (10 µM) were incubated in the buffer at a 2:1 ratio and loaded into the sample cell, and the injection syringe was filled with buffer containing 100 µM HMBPP.
For DMAPP/IPP binding to the preconditioned BTN2A1 B30.2 and BTN3A1 B30.2 complex, BTN2A1 B30.2 (200 µM) and BTN3A1 B30.2 (100 µM) were incubated in buffer at a 2:1 ratio and loaded into the sample cell, and the injection syringe was filled with buffer containing 1 mM DMAPP/IPP.
For other pAgs, their concentrations were adjusted to 500 µM, and BTN2A1 B30.2 and BTN3A1 B30.2 were adjusted to 100 µM and 50 µM at a 2:1 ratio.

[2] = test system: BTN2A−/− MIA PaCa-2 (BTN2A1/BTN2A2 KO) cells; experiment: Cell killing assay with BTN2A−/− MIA PaCa-2 (BTN2A1/BTN2A2 KO) cells expressing BTN2A1/BTN2A2 variants; conditions: replicates and mean
Protocol: (§4) MIA PaCa-2 cells were infected with lentivirus bearing luciferase transgene. Luciferase-positive cells were plated at 5.0 × 10^3 cells per well in 384-well plates 1 day before transfection. All plasmids were transfected into BTN2A^−/− MIA PaCa-2 (BTN2A1/BTN2A2 KO) cells using Lipofectamine 2000 reagent. […] Stable-lite luciferase (Vazyme) was added to each well and the luciferase signal was immediately measured by using the PerkinElmer EnVision microplate reader.
(§5) Percentage of lysis was calculated using the following equation: percentage of specific lysis = (maximum luciferase − experimental luciferase)/maximum luciferase × 100.

MIA PaCa-2 cells = experiment: Cell killing assay: cytotoxicity of Vγ9Vδ2 T cells towards pAg- or zoledronate-treated MIA PaCa-2 cells (luciferase); format: cell-based, human; conditions: Homo sapiens, MIA PaCa-2, read-out: EC50 (M) for MIA PaCa-2 cell lysis mediated by HMBPP analogs and Vγ9Vδ2 T cells
Protocol: as §4, §5

Vγ9Vδ2 T cells = conditions: cited from earlier work
VpBTN1 BFI–VpBTN3 BFI = experiment: ITC: VpBTN1 BFI binding to VpBTN3 BFI in the presence of pAg; set-up: species or system alpaca (Vicugna pacos)
Protocol: as §1, §2

T1 sequence (O00481 322-513 limits assumed): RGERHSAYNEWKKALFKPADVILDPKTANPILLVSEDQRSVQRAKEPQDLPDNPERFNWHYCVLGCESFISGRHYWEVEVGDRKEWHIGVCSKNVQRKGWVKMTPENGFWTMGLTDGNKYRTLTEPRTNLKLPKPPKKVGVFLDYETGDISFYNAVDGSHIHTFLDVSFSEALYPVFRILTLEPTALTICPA
T2 sequence (O00481 322-513 limits assumed): as above
T2 sequence (Q7KYR7 316-527 limits assumed): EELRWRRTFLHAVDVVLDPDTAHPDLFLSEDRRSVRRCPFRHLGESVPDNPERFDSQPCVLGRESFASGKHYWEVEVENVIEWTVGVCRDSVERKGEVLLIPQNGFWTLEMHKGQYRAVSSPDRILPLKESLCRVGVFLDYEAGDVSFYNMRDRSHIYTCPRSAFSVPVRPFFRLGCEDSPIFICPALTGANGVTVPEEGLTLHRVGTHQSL
VpBTN3 BFI, sequence (A0A345DF50 entry or part of it): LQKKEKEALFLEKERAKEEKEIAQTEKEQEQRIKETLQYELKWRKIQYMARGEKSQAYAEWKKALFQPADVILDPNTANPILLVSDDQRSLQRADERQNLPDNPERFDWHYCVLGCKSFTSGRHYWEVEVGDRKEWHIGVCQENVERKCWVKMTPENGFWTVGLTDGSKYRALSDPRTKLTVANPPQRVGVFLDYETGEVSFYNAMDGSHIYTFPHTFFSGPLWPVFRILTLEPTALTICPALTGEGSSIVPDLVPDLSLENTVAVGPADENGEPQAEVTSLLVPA

Kd (VpBTN3 BFI): 92.7 µM
Kd (BTN3A1 B30.2 domain): 120 µM
Kd ([1]; ITC, read-out: KD, pAg binding to the preconditioned BTN2A1–BTN3A1 B30.2 complex): 34.5 µM
VpBTN1 binding to VpBTN3 in the presence of pAg (VpBTN1 BFI–VpBTN3 BFI): does not bind
SMILES: CC(C)=CCOP(=O)(O)OP(=O)(O)O [Compound 2, 3-methylbut-2-en-1-yl diphosphate]
Cytotoxicity of Vγ9Vδ2 T cells (percentage of specific lysis) ([2]; DMAPP log concentration -3, 2A1 WT cells): 67.6357% and 66.8005% and 66.45% and 64.9272%
Cytotoxicity of Vγ9Vδ2 T cells (percentage of specific lysis) ([2]; DMAPP log concentration -3, 2A1 ∆C cells): 50.07% and 46.3428% and 49.8006% and 54.0592%
Cytotoxicity of Vγ9Vδ2 T cells (percentage of specific lysis) ([2]; DMAPP log concentration -4, 2A1 WT cells): 51.6139% and 52.9591% and 50.43% and 46.7133%
Cytotoxicity of Vγ9Vδ2 T cells (percentage of specific lysis) ([2]; DMAPP log concentration -4, 2A1 ∆C cells): 32.85% and 28.2229% and 33.1127% and 37.2268%
Cytotoxicity of Vγ9Vδ2 T cells (percentage of specific lysis) ([2]; DMAPP log concentration -5, 2A1 WT cells): 27.5187% and 30.1465% and 24.7% and 16.4296%
Cytotoxicity of Vγ9Vδ2 T cells (percentage of specific lysis) ([2]; DMAPP log concentration -5, 2A1 ∆C cells): 7.57% and 3.153% and 7.027% and 12.531%
Cytotoxicity of Vγ9Vδ2 T cells (percentage of specific lysis) ([2]; DMAPP log concentration -6, 2A1 WT cells): 16.7353% and 16.8396% and 11.83% and 1.904%
Cytotoxicity of Vγ9Vδ2 T cells (percentage of specific lysis) ([2]; DMAPP log concentration -6, 2A1 ∆C cells): -5.456% and -7.052% and -6.983% and -2.333%
Cytotoxicity of Vγ9Vδ2 T cells (percentage of specific lysis) ([2]; DMAPP log concentration -7, 2A1 WT cells): 14.3939% and 14.8552% and 15.57% and 17.4711%
Cytotoxicity of Vγ9Vδ2 T cells (percentage of specific lysis) ([2]; DMAPP log concentration -7, 2A1 ∆C cells): -6.482% and -4.367% and -8.1249% and -6.954%
Cytotoxicity of Vγ9Vδ2 T cells (percentage of specific lysis) ([2]; DMAPP log concentration -8, 2A1 WT cells): 15.6376% and 16.0032% and 16.43% and 17.6429%
Cytotoxicity of Vγ9Vδ2 T cells (percentage of specific lysis) ([2]; DMAPP log concentration -8, 2A1 ∆C cells): -6.047% and -3.94% and -7.782% and -6.418%
Cytotoxicity of Vγ9Vδ2 T cells (percentage of specific lysis) ([2]; DMAPP log concentration -9, 2A1 WT cells): 15.8717% and 18.2997% and 15.33% and 11.8213%
Cytotoxicity of Vγ9Vδ2 T cells (percentage of specific lysis) ([2]; DMAPP log concentration -9, 2A1 ∆C cells): -5.239% and -4.736% and -6.266% and -4.716%
Cytotoxicity of Vγ9Vδ2 T cells (percentage of specific lysis) ([2]; DMAPP log concentration -10, 2A1 WT cells): 19.1442% and 5.933% and 13.82% and 16.3962%
Cytotoxicity of Vγ9Vδ2 T cells (percentage of specific lysis) ([2]; DMAPP log concentration -10, 2A1 ∆C cells): -5.48% and -6.082% and -3.811% and -6.548%
EC50 (MIA PaCa-2 cells): 3.38e-05 M
Vγ9Vδ2 T cell activation (Vγ9Vδ2 T cells): weakly activate

Kd (VpBTN3 BFI): 96.1 µM
Kd (BTN3A1 B30.2 domain): 658 µM
Kd [1]: 625 µM
VpBTN1 binding to VpBTN3 in the presence of pAg (VpBTN1 BFI–VpBTN3 BFI): does not bind
SMILES: C=C(C)CCO[P@@](=O)(O)OP(=O)(O)O [Compound 3, 3-methylbut-3-en-1-yl diphosphate]
Cytotoxicity of Vγ9Vδ2 T cells (percentage of specific lysis) ([2]; IPP log concentration -3, 2A1 WT cells, listed as IPP): 80.272% and 79.8722% and 80.6% and 81.6589%
Cytotoxicity of Vγ9Vδ2 T cells (percentage of specific lysis) ([2]; IPP log concentration -3, 2A1 ∆C cells, listed as IPP): 66.24% and 65.5729% and 68.622% and 64.5211%
Cytotoxicity of Vγ9Vδ2 T cells (percentage of specific lysis) ([2]; IPP log concentration -4, 2A1 WT cells, listed as IPP): 65.5992% and 65.1182% and 63.37% and 59.3975%
Cytotoxicity of Vγ9Vδ2 T cells (percentage of specific lysis) ([2]; IPP log concentration -4, 2A1 ∆C cells, listed as IPP): 41.6% and 36.6007% and 47.2763% and 40.914%
Cytotoxicity of Vγ9Vδ2 T cells (percentage of specific lysis) ([2]; IPP log concentration -5, 2A1 WT cells, listed as IPP): 35.2807% and 27.2598% and 28.66% and 23.4468%
Cytotoxicity of Vγ9Vδ2 T cells (percentage of specific lysis) ([2]; IPP log concentration -5, 2A1 ∆C cells, listed as IPP): 1.679% and 1.84% and 2.699% and 0.4994%
Cytotoxicity of Vγ9Vδ2 T cells (percentage of specific lysis) ([2]; IPP log concentration -6, 2A1 WT cells, listed as IPP): 15.0716% and 6.17% and 6.634% and -1.341%
Cytotoxicity of Vγ9Vδ2 T cells (percentage of specific lysis) ([2]; IPP log concentration -6, 2A1 ∆C cells, listed as IPP): -15.39% and -15.1198% and -17.7309% and -13.3339%
Cytotoxicity of Vγ9Vδ2 T cells (percentage of specific lysis) ([2]; IPP log concentration -7, 2A1 WT cells, listed as IPP): 11.2422% and 4.023% and 5.64% and 1.654%
Cytotoxicity of Vγ9Vδ2 T cells (percentage of specific lysis) ([2]; IPP log concentration -7, 2A1 ∆C cells, listed as IPP): -18.31% and -18.7728% and -18.1549% and -17.992%
Cytotoxicity of Vγ9Vδ2 T cells (percentage of specific lysis) ([2]; IPP log concentration -8, 2A1 WT cells, listed as IPP): 11.2149% and 6.571% and 5.735% and -0.5797%
Cytotoxicity of Vγ9Vδ2 T cells (percentage of specific lysis) ([2]; IPP log concentration -8, 2A1 ∆C cells, listed as IPP): -16.71% and -15.5368% and -14.5401% and -20.0505%
Cytotoxicity of Vγ9Vδ2 T cells (percentage of specific lysis) ([2]; IPP log concentration -9, 2A1 WT cells, listed as IPP): 7.561% and 7.582% and 2.411% and -7.912%
Cytotoxicity of Vγ9Vδ2 T cells (percentage of specific lysis) ([2]; IPP log concentration -9, 2A1 ∆C cells, listed as IPP): -17.93% and -16.44% and -18.8245% and -18.5163%
Cytotoxicity of Vγ9Vδ2 T cells (percentage of specific lysis) ([2]; IPP log concentration -10, 2A1 WT cells, listed as IPP): 9.041% and 9.773% and 3.545% and -8.179%
Cytotoxicity of Vγ9Vδ2 T cells (percentage of specific lysis) ([2]; IPP log concentration -10, 2A1 ∆C cells, listed as IPP): -16.6% and -16.8802% and -17.0673% and -15.8455%
EC50 (MIA PaCa-2 cells): 0.00493 M
Vγ9Vδ2 T cell activation (Vγ9Vδ2 T cells): weakly activate
